According to patent publication US4857537A, “Novel thiazolidine derivatives” (Ono Pharmaceutical Co., Ltd., priority 1987, dated 1989):
Where two headings read alike, the source gives them in different places. Square brackets hold non-standard residues; d marks the D form. Peptide text beside a SMILES is read from it. * marks the point of attachment. ξ: configuration not given here. Hydrocinnamoyl = O=C(CCc1ccccc1)*; Thz = O=C(O)[C@@H]1CSCN1; Cbz = O=C(OCc1ccccc1)*; ξPip = O=C(O)C1CCCCN1; CH2Cl = ClC*

Columns and labels:
[1] = target: T1, prolyl endopeptidase (Bos taurus, UniProt Q9XTA2); assay: Prolyl endopeptidase inhibitory activity in vitro; type: biochemical, bovine
T1 construct: purified from bovine brain; from tissue; host or cells: bovine brain
T1 sequence (Q9XTA2 whole entry): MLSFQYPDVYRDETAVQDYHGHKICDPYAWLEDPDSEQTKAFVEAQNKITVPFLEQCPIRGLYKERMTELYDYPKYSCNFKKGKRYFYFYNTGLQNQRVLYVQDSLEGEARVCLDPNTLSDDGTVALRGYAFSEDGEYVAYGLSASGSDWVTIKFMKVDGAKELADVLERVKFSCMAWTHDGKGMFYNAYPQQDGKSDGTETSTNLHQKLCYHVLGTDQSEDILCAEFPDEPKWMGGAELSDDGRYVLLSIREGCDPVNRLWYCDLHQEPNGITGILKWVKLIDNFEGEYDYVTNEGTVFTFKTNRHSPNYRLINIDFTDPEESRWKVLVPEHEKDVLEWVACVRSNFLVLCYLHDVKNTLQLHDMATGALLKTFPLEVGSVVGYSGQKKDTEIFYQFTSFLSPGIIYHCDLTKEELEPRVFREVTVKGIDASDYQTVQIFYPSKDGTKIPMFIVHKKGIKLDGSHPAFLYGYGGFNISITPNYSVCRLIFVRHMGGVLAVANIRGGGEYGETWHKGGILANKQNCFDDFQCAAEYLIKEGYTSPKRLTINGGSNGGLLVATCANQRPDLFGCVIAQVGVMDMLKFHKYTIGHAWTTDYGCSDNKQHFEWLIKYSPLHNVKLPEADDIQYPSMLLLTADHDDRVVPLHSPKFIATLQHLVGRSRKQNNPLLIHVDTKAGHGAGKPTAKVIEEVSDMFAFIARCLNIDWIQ
Method: Inhibitory activity of prolyl endopeptidase in vitro was measured by the following test system.
A mixed solution of 20 mM tris-HCl buffer (pH 7.5; 935 μl; containing 10 mM EDTA and 10 mM mercaptoethanol), a solution of a compound of the present invention in DMSO (10 μl) and a solution of prolyl endopeptidase which was purified from bovine brain (0.13 unit; prepared by the method described in J. Biochem., 94, 1179 (1983)) in tris-HCl buffer (15 μl) was preincubated for 15 mins at 37° C.
To the solution, 5 mM of N-benzyloxycarbonyl-glycyl-prolyl-p-nitroanilide (40 μl) in a mixture of 40% dioxane--60% water was added. Ths solution was incubated for 1 min at the same temperature.
Optical absorption (a1) at 405 nm of the solution, and optical absorption (a2) at 405 nm of the solution after more 30 mins' incubation at 37° C. were measured.
Optical absorptions (b1 and b2) of the solutions using DMSO instead of the solution of the compound of the present invention were also measured.
Inhibitory ratio was calculated by the following expression and IC50 (required concentration for 50% inhibition) was obtained (See Protein, Nucleic acid and Enzyme 25(6), 513, 1980.). [formula]

[2] = test system: prolyl endopeptidase; conditions: See J. Neurochem., 41, 69(1983); cited from earlier work
[3] = in vitro, purified from bovine brain, pH 7.5, 37° C., substrate N-benzyloxycarbonyl-glycyl-prolyl-p-nitroanilide, 405 nm, read-out: Concentration for 50% inhibition IC50

SMILES	IC50 [1, 3] [nM]	other results
O=C[C@@H]1CSCN1C(=O)C1CCCCN1C(=O)CCc1ccccc1 (stereo partly drawn) [1 (n), (4R)3-[1-(3-phenylpropionyl)piperidine-2-carbonyl]thiazolidin-4-al] (Hydrocinnamoyl-[ξPip]-[Thz]-aldehyde)	20	
COc1ccc(CNC(=O)CCC(=O)N2CSC[C@H]2C=O)cc1 [1 (t), (4R)3-[3-[N(4-methoxybenzyl)carbamoyl]propionyl]thiazolidin-4-al]	35	
O=C[C@@H]1CSCN1C(=O)/C=C/c1ccc(CCCCCc2ccccc2)cc1 [1 (g), (4R)3-[4-(5-phenylpentyl)cinnamoyl]thiazolidin-4-al]		IC50 [1]: 4800 nM
CC(C)C(CCCCCc1ccccc1)C(=O)N1CSC[C@H]1C=O (stereo partly drawn) [1 (c), (4R)3-(2-isopropyl-7-phenylheptanoyl)thiazolidin-7-al]	87	
CC(C)C(NC(=O)CCCc1ccccc1)C(=O)N1CSC[C@H]1C=O (stereo partly drawn) [1 (q), (4R)3-[2-(4-phenylbutyrylamino)-3-methylbutyryl]thiazolidin-4-al]	5.7	
O=C[C@@H]1CSCN1C(=O)CCCOCc1ccccc1 [1 (i), (4R)3-(4-benzyloxybutyryl) thiazolidin-4-al]	8100	
O=C[C@@H]1CSCN1C(=O)CCC(=O)CCCc1ccccc1 [1 (k), (4R)3-(4-oxo-7-phenylheptanoyl) thiazolidin-4-al]	16	
O=C[C@@H]1CSCN1C(=O)C1CCC[C@H]1C(=O)CCc1ccccc1 (stereo partly drawn) [1 (l), (4R)3-[(2R)2-(3-phenylpropionyl)cyclopentanecarbonyl]thiazolidin-4-al]	22	
O=C[C@@H]1CSCN1C(=O)CCCCCCCCCc1ccccc1 [1 (b), (4R)3-(10-phenyldecanoyl) thiazolidin-4-al]	730	
O=C[C@@H]1CSCN1C(=O)CCC(=O)N(Cc1ccccc1)c1ccccc1 [1 (s), (4R)3-[3-(Nbenzyl-Nphenylcarbamoyl)propionyl]thiazolidin-4-al]	6.8	
O=C[C@@H]1CSCN1C(=O)C1CCCC1C(=O)NCc1ccccc1 (stereo partly drawn) [1 (v), (4R)3-[2-[Nbenzylcarbamoyl)cyclopentanecarbonyl]thiazolidin-4-al]	83	
O=C(NCC(=O)N1CCC[C@H]1C(=O)CCl)OCc1ccccc1 [N-benzyloxycarbonyl-glycyl-L-prolyl-chloromethane] (Cbz-Gly-Pro-CH2Cl)		inhibition of prolyl endopeptidase (in words) [2]: strongly inhibit
